The values below come from article PMC6111440, “Cyclin-Dependent Kinase (CDK) Inhibitors: Structure–Activity Relationships and Insights into the CDK-2 Selectivity of 6-Substituted 2-Arylaminopurines” (Journal of Medicinal Chemistry, 2016).

For orientation: GI50 means the concentration at which growth is held to half of that of the control.

Where two headings read alike, the source gives them in different places.

In assay [1] the target is T1, CDK7/H (Homo sapiens, UniProt P50613).
Experimental: (§1) Human CDK1/B was purchased from New England Biolabs or prepared as described,[46] CDK2/A2 was prepared as described,[46] CDK4/D was provided by AstraZeneca, and CDK7/H and CDK9/T were purchased from Upstate. IC50 values for CDK1/B, CDK2/A, and CDK4/D were determined as described.[23] IC50 values for CDK7/H and CDK9/H were determined according to the supplier’s instructions (Upstate).
Assay [2] addresses T2, CDK2/A (Homo sapiens, UniProt P24941).
Experimental: as §1
The target of assay [3] is T3, CDK9/T (Homo sapiens, UniProt P50750).
T3 sequence (P50750 whole entry): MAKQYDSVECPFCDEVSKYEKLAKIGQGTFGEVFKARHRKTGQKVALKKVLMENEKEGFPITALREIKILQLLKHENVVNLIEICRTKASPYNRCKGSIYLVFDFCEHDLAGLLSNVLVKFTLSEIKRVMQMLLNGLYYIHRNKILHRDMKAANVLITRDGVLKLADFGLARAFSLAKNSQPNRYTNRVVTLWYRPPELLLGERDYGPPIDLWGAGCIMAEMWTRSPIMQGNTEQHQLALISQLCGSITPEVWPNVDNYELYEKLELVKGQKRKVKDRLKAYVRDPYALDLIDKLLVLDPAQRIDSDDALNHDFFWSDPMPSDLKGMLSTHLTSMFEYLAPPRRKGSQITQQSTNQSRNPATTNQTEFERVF
T3 sequence (O60563 whole entry partner): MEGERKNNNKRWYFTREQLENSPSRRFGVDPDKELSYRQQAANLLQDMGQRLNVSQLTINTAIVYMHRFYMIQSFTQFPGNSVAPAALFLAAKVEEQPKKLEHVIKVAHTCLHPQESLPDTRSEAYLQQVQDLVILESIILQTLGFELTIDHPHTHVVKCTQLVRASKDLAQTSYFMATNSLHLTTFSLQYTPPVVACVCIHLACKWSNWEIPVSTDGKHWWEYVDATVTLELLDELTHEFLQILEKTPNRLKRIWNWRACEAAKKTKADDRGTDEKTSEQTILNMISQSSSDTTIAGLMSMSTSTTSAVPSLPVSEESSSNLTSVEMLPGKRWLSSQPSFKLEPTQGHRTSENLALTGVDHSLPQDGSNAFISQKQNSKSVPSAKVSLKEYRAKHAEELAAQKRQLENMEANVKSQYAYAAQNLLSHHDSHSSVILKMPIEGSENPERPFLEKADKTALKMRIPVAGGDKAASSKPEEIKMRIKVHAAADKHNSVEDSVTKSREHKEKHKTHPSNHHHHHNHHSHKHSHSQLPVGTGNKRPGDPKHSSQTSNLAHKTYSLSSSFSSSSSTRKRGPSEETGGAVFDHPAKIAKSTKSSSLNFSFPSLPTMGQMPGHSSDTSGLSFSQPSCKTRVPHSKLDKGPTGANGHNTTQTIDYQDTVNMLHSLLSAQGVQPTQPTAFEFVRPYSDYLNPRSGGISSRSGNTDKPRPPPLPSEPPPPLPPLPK
Experimental: as §1
The target of assay [4] is T4, Human CDK1/B (Homo sapiens, UniProt P06493).
T4 sequence (P06493 whole entry): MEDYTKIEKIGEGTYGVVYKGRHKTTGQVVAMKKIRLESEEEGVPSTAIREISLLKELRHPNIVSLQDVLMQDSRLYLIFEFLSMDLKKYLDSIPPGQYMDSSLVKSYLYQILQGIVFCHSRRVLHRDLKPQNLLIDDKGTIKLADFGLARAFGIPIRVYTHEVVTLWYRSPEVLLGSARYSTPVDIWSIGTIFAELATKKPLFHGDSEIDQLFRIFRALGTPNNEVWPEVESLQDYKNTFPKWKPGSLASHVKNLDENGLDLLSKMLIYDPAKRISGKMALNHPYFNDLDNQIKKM
T4 sequence (P14635 whole entry partner): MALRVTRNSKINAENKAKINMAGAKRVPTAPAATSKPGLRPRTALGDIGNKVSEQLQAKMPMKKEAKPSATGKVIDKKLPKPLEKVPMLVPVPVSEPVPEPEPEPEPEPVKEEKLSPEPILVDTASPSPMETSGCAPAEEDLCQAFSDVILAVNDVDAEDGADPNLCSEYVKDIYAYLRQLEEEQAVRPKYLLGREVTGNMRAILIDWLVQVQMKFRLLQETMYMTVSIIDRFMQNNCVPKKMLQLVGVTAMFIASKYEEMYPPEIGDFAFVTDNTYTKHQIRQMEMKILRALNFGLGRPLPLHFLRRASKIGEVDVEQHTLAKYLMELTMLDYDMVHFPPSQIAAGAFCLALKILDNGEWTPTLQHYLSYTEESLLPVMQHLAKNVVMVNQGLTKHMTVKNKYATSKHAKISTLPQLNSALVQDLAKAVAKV
Experimental: as §1
For assay [5], the target named is T2, CDK2/A. Briefly: biochemical.
Experimental: as §1
In assay [6] the target is CDK4/D (Homo sapiens, UniProt P11802). The assay can be described thus: biochemical. To be noted: for inhibition at 100 µM: read-out: CDK4/D % inhibition at 100 μM; for inhibition at 10 µM: read-out: CDK4 Inhibition at 10 μM (%).
CDK4/D, sequence (P11802 whole entry): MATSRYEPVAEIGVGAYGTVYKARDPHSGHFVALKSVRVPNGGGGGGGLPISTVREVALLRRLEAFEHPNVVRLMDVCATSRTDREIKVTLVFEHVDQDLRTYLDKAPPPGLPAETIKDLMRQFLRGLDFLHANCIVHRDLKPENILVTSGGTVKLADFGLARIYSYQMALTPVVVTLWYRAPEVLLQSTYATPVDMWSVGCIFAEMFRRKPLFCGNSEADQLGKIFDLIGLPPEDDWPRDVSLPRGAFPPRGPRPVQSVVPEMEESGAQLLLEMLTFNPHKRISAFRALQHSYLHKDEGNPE
CDK4/D, sequence (P24385 whole entry partner): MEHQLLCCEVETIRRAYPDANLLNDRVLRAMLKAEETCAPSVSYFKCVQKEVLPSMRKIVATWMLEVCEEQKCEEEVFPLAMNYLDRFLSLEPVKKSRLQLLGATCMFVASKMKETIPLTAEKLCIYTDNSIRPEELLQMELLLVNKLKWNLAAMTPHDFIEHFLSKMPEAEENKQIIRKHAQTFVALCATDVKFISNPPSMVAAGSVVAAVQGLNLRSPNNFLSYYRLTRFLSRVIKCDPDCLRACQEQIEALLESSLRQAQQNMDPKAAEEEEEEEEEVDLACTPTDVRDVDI
Experimental: as §1
In assay [7] the test system is Rb-proficient human tumor cell lines (A375, Calu-6, MDA-MB-231, SJSA1, SKUT-1B). The assay can be described thus: 5-day growth inhibition SRB assay. The conditions noted are these: for GI50: Homo sapiens, 120 h. A general note: In SRB staining, fixed cells bind dye roughly in proportion to their protein.
Experimental: Dose–response curves and GI50 bar charts represent the mean ± SEM from three or four independent experiments.
The ability of selected compounds to inhibit cell growth was assessed in a panel of human cancer cell lines using an SRB assay.[45] […] At least three independent experiments were performed. Growth inhibitory GI50 values were calculated using GraphPad Prism software (GraphPad Software, Inc., San Diego, CA).
For assay [8], the target named is T1, CDK7/H. Briefly: biochemical. The conditions noted are these: for inhibition at 10 µM: read-out: CDK7 Inhibition at 10 μM (%).
Experimental: as §1
Assay [9] addresses T5, CDK5 (Homo sapiens, UniProt Q00535). Briefly: biochemical. To be noted: read-out: CDK5 Inhibition at 10 μM (%).
In assay [10] the target is T3, CDK9/T. The assay can be described thus: biochemical. To be noted: read-out: CDK9 Inhibition at 10 μM (%).
Experimental: as §1
Assay [11] deals with T4, Human CDK1/B. The assay can be described thus: biochemical. The conditions noted are these: read-out: CDK1 Inhibition at 10 μM (%).
Experimental: as §1
Assay [12] has as its target T5, CDK5. The conditions noted are these: read-out: CDK5 Inhibitory Activity IC50; Table 3.
[13] abbreviates: read-out: CDK7/H IC50, Table 2, ATP 100 μM.
Where [14] appears, read: read-out: CDK2 Inhibition IC50, Table 1, ATP 12.5 μM.
The mark [15] stands for this setting: read-out: CDK9/T IC50, Table 2, ATP 100 μM.
Where [16] appears, read: read-out: CDK1/B IC50, Table 2, ATP 12.5 μM.
The mark [17] stands for this setting: read-out: CDK2 Inhibitory Activity IC50, Table 3.
[18] abbreviates: read-out: CDK1 Inhibitory Activity IC50, Table 3.
Setting [19] is: read-out: CDK7 Inhibitory Activity IC50, Table 3.
The mark [20] stands for this setting: read-out: CDK9 Inhibitory Activity IC50, Table 3.
Where [21] appears, read: read-out: CDK2 Inhibition at 10 μM (%).

T5 sequence (Q00535 whole entry, species assumed): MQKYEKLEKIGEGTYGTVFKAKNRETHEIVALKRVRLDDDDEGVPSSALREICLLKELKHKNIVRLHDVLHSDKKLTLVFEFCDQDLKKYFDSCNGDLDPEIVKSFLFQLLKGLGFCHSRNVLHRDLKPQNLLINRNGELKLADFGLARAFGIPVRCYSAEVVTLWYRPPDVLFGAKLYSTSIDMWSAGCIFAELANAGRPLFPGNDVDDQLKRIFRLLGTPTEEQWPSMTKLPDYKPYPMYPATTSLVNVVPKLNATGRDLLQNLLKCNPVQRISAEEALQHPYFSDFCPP
T5 sequence (Q15078 99-307 partner limits assumed, species assumed): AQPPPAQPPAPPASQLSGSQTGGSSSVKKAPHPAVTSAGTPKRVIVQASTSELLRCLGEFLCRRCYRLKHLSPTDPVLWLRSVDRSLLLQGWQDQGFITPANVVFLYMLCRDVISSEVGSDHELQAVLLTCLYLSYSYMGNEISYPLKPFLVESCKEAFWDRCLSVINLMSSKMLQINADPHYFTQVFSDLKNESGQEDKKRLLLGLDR
T1 sequence (P50613 whole entry): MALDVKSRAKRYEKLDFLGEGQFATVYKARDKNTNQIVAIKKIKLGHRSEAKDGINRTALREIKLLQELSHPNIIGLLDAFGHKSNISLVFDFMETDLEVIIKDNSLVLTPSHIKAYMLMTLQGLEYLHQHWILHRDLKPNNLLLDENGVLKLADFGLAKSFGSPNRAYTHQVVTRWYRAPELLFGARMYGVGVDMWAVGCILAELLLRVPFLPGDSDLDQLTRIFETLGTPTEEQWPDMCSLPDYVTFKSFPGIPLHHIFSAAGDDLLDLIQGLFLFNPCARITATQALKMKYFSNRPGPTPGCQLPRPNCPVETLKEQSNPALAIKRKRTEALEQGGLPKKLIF
T1 sequence (P51946 whole entry partner): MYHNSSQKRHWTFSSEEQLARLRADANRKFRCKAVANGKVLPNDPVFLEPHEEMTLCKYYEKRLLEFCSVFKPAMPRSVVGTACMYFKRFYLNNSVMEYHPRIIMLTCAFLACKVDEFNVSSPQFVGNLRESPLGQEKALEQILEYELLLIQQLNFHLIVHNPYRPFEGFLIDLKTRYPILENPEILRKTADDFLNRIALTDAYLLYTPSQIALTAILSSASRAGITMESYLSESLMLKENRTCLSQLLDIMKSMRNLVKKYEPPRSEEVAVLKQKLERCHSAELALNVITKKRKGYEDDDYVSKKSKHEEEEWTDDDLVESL
T1 sequence (P51948 whole entry partner): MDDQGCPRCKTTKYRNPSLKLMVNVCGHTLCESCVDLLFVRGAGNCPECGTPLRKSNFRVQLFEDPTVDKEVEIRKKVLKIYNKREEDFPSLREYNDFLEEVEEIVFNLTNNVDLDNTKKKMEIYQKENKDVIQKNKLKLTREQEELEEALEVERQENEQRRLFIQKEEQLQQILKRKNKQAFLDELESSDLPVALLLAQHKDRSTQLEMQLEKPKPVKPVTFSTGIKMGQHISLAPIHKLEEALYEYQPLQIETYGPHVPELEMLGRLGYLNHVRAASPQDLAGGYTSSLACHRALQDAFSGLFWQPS

With `CCC(C)Oc1nc(Nc2ccc(S(N)(=O)=O)cc2)nc2[nH]cnc12` (racemic) [Compound 34], the IC50 in [1] (setting [13]) came to 2.8 ± 0.1 µM; in [2] (read-out: CDK2/A IC50, Table 2, ATP 12.5 μM) it was 0.0012 ± 0.0005 µM; in [2] (setting [14]), 0.001 ± 0.0005 µM; in [3] (setting [15]), 0.57 ± 0.05 µM; in [4] (setting [16]), 0.097 ± 0.04 µM.
With `Nc1nc2ncnc-2c[nH]1` [Compound 8, 2-Aminopurine, reference compound], in [5] (read-out: CDK2 Inhibition (%) at 100 μM), the inhibition at 100 µM is 4%.
For `c1ccc(Nc2ncc3nc[nH]c3n2)cc1` [Compound 12, Phenyl-(9H-purin-2-yl)amine], in [2] (setting [14]), the IC50 came out at 61 ± 0.1 µM.
Turning to `NS(=O)(=O)c1ccc(Nc2ncc3nc[nH]c3n2)cc1` [Compound 13, 4-(9H-Purin-2-ylamino)benzenesulfonamide], in assay [6], the inhibition at 100 µM was determined as 12%. The IC50 in assay [1] (setting [13]) came to 75 ± 3 µM; in assay [2] (setting [14]), 1.5 ± 0.1 µM; in assay [3] (setting [15]), 38 ± 11 µM; in [4] (setting [16]) it was 15.8 ± 1.2 µM. The “fold less active/potent than 3 against CDK2” value in [2] (compared with 3) is on record as around 300 fold.
With `CC(C)[Si](C#Cc1nc(Nc2ccc(S(N)(=O)=O)cc2)nc2[nH]cnc12)(C(C)C)C(C)C` [Compound 40, 4-(6-((Triisopropylsilyl)ethynyl)-9H-purin-2-ylamino)benzenesulfonamide], the IC50 in assay [2] (setting [14]) was determined as 0.017 ± 0.001 µM.
Still for that read-out and setting: as for `CC#Cc1nc(Nc2ccccc2)nc2[nH]cnc12` [Compound 48, N-Phenyl-6-(prop-1-yn-1-yl)-9H-purin-2-amine], the figure is 6.4 ± 0.4 µM; as for `C(#Cc1nc(Nc2ccccc2)nc2[nH]cnc12)c1ccccc1` [Compound 49, N-Phenyl-6-(phenylethynyl)-9H-purin-2-amine], 8.9 ± 0.7 µM.
`CCc1nc(Nc2ccc(S(N)(=O)=O)cc2)nc2[nH]cnc12` [Compound 52, 4-(6-Ethyl-9H-purin-2-ylamino)benzenesulfonamide]: the “fold reduction of CDK2-inhibitory activity compared with 30” value in assay [2] (compared with 6-ethoxypurine 30) is reported as around 10 fold. The IC50 in assay [2] (setting [14]) came to 0.22 ± 0.003 µM.
In the case of `NS(=O)(=O)c1ccc(Nc2nc(C3CC3)c3nc[nH]c3n2)cc1` [Compound 55, 4-(6-Cyclopropyl-9H-purin-2-ylamino)benzenesulfonamide], the IC50 in assay [2] (setting [14]) was 0.019 ± 0.001 µM.
For `NS(=O)(=O)c1ccc(Nc2nc(-c3ccccc3)c3nc[nH]c3n2)cc1` [Compound 70, 4-(6-Phenyl-9H-purin-2-ylamino)benzenesulfonamide], the IC50 in assay [1] (setting [13]) was 6.8 ± 0.4 µM; in assay [2] (setting [14]) it was 0.024 ± 0.002 µM; in assay [3] (setting [15]), 0.57 ± 0.04 µM; in assay [4] (setting [16]), 0.73 ± 0.003 µM.
Consider `COc1cccc(-c2nc(Nc3ccc(S(N)(=O)=O)cc3)nc3[nH]cnc23)c1` [Compound 71, 4-(6-(3-Methoxyphenyl)-9H-purin-2-ylamino)benzenesulfonamide], for which, in assay [2] (setting [14]), the IC50 turned out to be 0.039 ± 0.013 µM.
On to `COc1ccc(-c2nc(Nc3ccc(S(N)(=O)=O)cc3)nc3[nH]cnc23)cc1` [Compound 72, 4-(6-(4-Methoxyphenyl)-9H-purin-2-ylamino)benzenesulfonamide], for which the IC50 in assay [2] (setting [14]) was determined as 0.052 ± 0.004 µM.
Consider `NS(=O)(=O)c1ccc(Nc2nc(-c3cccc(-c4ccccc4)c3)c3nc[nH]c3n2)cc1` [Compound 73, 4-((6-([1,1′-Biphenyl]-3-yl)-9H-purin-2-yl)amino)benzenesulfonamide], for which the inhibition at 100 µM in assay [6] turned out to be 26%; in assay [8] (read-out: CDK7/H % inhibition at 100 μM), 28%. Moreover, the “effect on the growth of cells” value in assay [7] (maximal concentration tested 30 μM, 5-day growth assay, GI50 could not be determined) is given as “no or limited effects”. Moreover, the “selectivity for CDK2 over CDK1” value in assay [2] (ratio of CDK1 and CDK2 IC50) is on record as around 2000 fold. The IC50 in assay [2] (setting [14]) is 0.044 ± 0.012 µM; in [3] (setting [15]), 25 ± 8 µM; in assay [4] (setting [16]), 86 ± 4 µM.
On to `NS(=O)(=O)c1ccc(Nc2nc(-c3ccc4c(c3)OCO4)c3nc[nH]c3n2)cc1` [Compound 74, 4-(6-(Benzo[d][1,3]dioxol-5-yl)-9H-purin-2-ylamino)benzenesulfonamide], for which, in assay [2] (compared with 70), the “fold less potent than 70 (CDK2)” value is given as around 20 fold. Further, the IC50 in assay [2] (setting [14]) turned out to be 0.58 ± 0.02 µM.
Take `NS(=O)(=O)c1ccc(Nc2nc(-c3cccc4c3oc3ccccc34)c3nc[nH]c3n2)cc1` [Compound 75, 4-(6-(4-Dibenzofuryl)-9H-purin-2-ylamino)benzenesulfonamide]: the IC50 in assay [2] (setting [14]) was found to be 1.4 ± 0.2 µM.
On to `NS(=O)(=O)c1ccc(Nc2nc(-c3cccc4c3Sc3ccccc3S4)c3nc[nH]c3n2)cc1` [Compound 76], for which the IC50 in [2] (setting [14]) was determined as 6.7 ± 0.5 µM.
`Nc1cc(OCC2CCCCC2)c2nc[nH]c2n1` [Compound 80, 7-(Cyclohexylmethoxy)-3H-imidazo[4,5-b]pyridin-5-amine]: the IC50 in assay [2] (setting [17]) was 28.4 ± 0.8 µM.
For the molecule `NS(=O)(=O)c1ccc(Nc2cc(OCC3CCCCC3)c3nc[nH]c3n2)cc1` [Compound 83, 4-((7-(Cyclohexylmethoxy)-3H-imidazo[4,5-b]pyridin-5-yl)amino) benzenesulfonamide], the inhibition at 10 µM in assay [6] came to 23 ± 1%; in [9], 37%; in [8], 37%; in [10], 42%. Besides, the IC50 stood at 0.29 ± 0.01 µM in [2] (setting [17]) and 11 ± 2 µM in [4] (setting [18]).
In the case of `Nc1nc(OCC2CCCCC2)c2nn[nH]c2n1` [Compound 86, 7-(Cyclohexylmethoxy)-3H-[1,2,3]triazolo[4,5-d]pyrimidin-5-amine], the inhibition at 10 µM was found to be 6.2% in assay [6]; 13% in assay [9]; 21% in assay [11]; 13% in assay [8]; 16% in [10]. In addition, the IC50 in assay [2] (setting [17]) was 18 ± 1 µM.
Take `Nc1nc(OCC2CCCCC2)c2cn[nH]c2n1` [Compound 87, 4-(Cyclohexylmethoxy)-1H-pyrazolo[3,4-d]pyrimidin-6-amine]: the inhibition at 10 µM was 0% in assay [6]; 14% in assay [9]; 32% in assay [11]; 16% in assay [8]; 16% in assay [10]. Further, the IC50 in [2] (setting [17]) was determined as 16 ± 4 µM.
Turning to `NS(=O)(=O)c1ccc(Nc2nc(OCC3CCCCC3)c3nn[nH]c3n2)cc1` [Compound 90, 4-((7-(Cyclohexylmethoxy)-3H-[1,2,3]triazolo[4,5-d]pyrimidin-5-yl)amino) benzenesulfonamide], the IC50 in [1] (setting [19]) was 6.8 ± 0.7 µM; in [12] it was 3.3 ± 0.2 µM; in assay [2] (setting [17]), 0.002 ± 0.0001 µM; in assay [3] (setting [20]), 0.75 ± 0.03 µM; in assay [4] (setting [18]), 0.75 ± 0.06 µM.
Turning to `NS(=O)(=O)c1ccc(Nc2nc(OCC3CCCCC3)c3cn[nH]c3n2)cc1` [Compound 91, 4-((4-(Cyclohexylmethoxy)-1H-pyrazolo[3,4-d]pyrimidin-6-yl)amino)benzenesulfonamide], the IC50 in assay [1] (setting [19]) worked out at 7 ± 0.3 µM; in assay [12], 5.9 ± 0.1 µM; in assay [3] (setting [20]), 4.6 ± 0.2 µM. The same molecule came in with a GI50 in [7] of 1 to 22 µM.
For the molecule `Nc1nc(OCC2CCCCC2)c2cc[nH]c2n1` [Compound 93, 4-(Cyclohexylmethoxy)-7H-pyrrolo[2,3-d]pyrimidin-2-amine], the inhibition at 10 µM was found to be 5.6% in assay [6]; 12% in assay [9]; 11% in assay [11]; 41 ± 10% in assay [5] (read-out: CDK2 Inhibition (%) at 10 uM); 5.1% in assay [8]; 0% in assay [10]. Moreover, the inhibition at 100 µM in assay [5] (read-out: CDK2 Inhibition (%), value determined at 100 μM) came out at 41%.
On to `NS(=O)(=O)c1ccc(Nc2nc(OCC3CCCCC3)c3cc[nH]c3n2)cc1` [Compound 98, 4-((4-(Cyclohexylmethoxy)-7H-pyrrolo[2,3-d]pyrimidin-2-yl)amino)benzenesulfonamide], for which the IC50 was determined as 4.1 ± 0.2 µM in assay [1] (setting [19]); 4.4 ± 0.6 µM in assay [12]; 0.026 ± 0.001 µM in [2] (setting [17]); 1 ± 0.2 µM in assay [3] (setting [20]); 2.7 ± 0.2 µM in [4] (setting [18]). Besides, the GI50 in [7] was in the range of 1 to 22 µM.
For `c1ccc(Nc2cc(OCC3CCCCC3)n3ccnc3n2)cc1` [Compound 101, 5-Cyclohexylmethoxy-7-anilinoimidazo[1,2-a]pyrimidine], in assay [5] (setting [21]), the inhibition at 10 µM stood at 10%.
Consider `NS(=O)(=O)c1ccc(Nc2cc(OCC3CCCCC3)n3ccnc3n2)cc1` [Compound 102, 5-Cyclohexylmethoxy-7-(4′-sulfamoylanilino)imidazo[1,2-a]pyrimidine], for which the inhibition at 10 µM in assay [5] (setting [21]) is 36%.
